Patent publication US20240165165A1, “PHARMACEUTICAL COMPOSITIONS AND THEIR METHODS OF USE” (The Trustees of Indiana University, priority 2021, published 2024)

Columns and labels:
[1] = system: EO771 mammary tumor cells in the lung of C57BL/6 mice; assay: In vivo extravasation assay; parameters: species or system mouse; details: co-injection into tail vein, 48 h
Method: To evaluate the effects of CMs for tumor invasion, the in vivo extravasation assay was conducted. C57BL/6 female mice (5 mice per group) received an injection of 50 μl of fluorescently labeled EO771 cells (1.0×10^6 cells) into the lateral tail veins. Fluorescently labeled EO771 cells were prepared by culturing them with a green fluorescent dye (#4705, Sartorius, Gottingen, Germany) for 20 min at 37° C. Cells were then centrifuged with 1000 rpm for 5 min for harvesting the pellet. The pellet was re-suspended in PBS (placebo group) or osteocyte-derived CM (A5 CM group). Mice will be sacrificed after 48 h for histologically identifying extravascular tumor cells in the lung.

[2] = system: EO771 cells in the inside of the skull; assay: Skull diffusion assay, MTT-based viability; type: cell-based, mouse; details: agent in the outside of the skull
Method: (§1) Skull diffusion assay. The usage of human breast cancer tissues was approved by the Indiana University Institutional Review Board, and informed consent for research use was obtained from all patients. The experiment was performed following Indiana University's human research protection program policies. A breast cancer tissue (— 1 g; ER/PR+, HER2+), received from Simon Cancer Center Tissue Procurement Core, was manually fragmented with a scalpel into small pieces. Mouse skulls were isolated and rinsed with PBS. They were placed in a 24-well plate with the head top facing the well surface and tumor cells or breast cancer tissue fragments were grown. The well was filled with the control medium or osteocyte-derived CM. Fluphenazine (Sigma-Aldrich), a dopamine receptor antagonist that suppresses the growth of mammary tumor cells, was employed as a positive control to suppress tumor growth.

[3] = system: human breast cancer fragments in the inside of the skull; assay: Skull diffusion assay, tissue fragments; type: cell-based; details: agent in the outside of the skull
Method: as §1

[4] = system: phosphorylated Akt in MSCs; assay: Western blot of phosphorylated Akt; type: cell-based, mouse
Method: (§2) Western blot analysis and protein array analysis. Western blot analysis was conducted using the procedure previously described. Antibodies against Lrp5, Runx2, Snail, TGFβ, sclerostin, Calr, p-eIF2α, eIF2α (Cell Signaling, Danvers, MA, USA), LIF, Trail (Novus Biologicals, Centennial, CO, USA), MMP9, NFATc1, cathepsin K (Santa Cruz Biotechnology, Dallas, TX, USA), p53, CXCL2, Ppib (Invitrogen, Carlsbad, CA, USA), Hsp90ab1 (Abcam, Cambridge, UK), and β-actin (Sigma, Saint Louis, MO, USA) were used. A proteome profiler mouse XL cytokine array kit (R&D Systems, Minneapolis, MN, USA) was also employed, and the expression of 111 cytokines and chemokines in MSC-derived CM was determined.

4T1.2 cells = assay: Western blot of proteins in treated tumor cells; type: cell-based, mouse; details: for tumor-promoting genes (Lrp5, MMP9, Runx2, TGFβ, Snail) in 4T1.2 cells: Western blot
Method: as §2

[5] = system: 4T1.2 mammary tumor cells; assay: MTT viability assay; type: cell-based, mouse
Source text: (§3) In vitro assays. Cellular viability was examined using an MTT assay (Invitrogen, Carlsbad, CA, USA) with the procedure previously described, as well as an EdU assay with a fluorescence-based cell proliferation kit (Thermo-Fisher, Waltham, MA, USA). The recombinant proteins employed included Filamin A, Pkm, Pdia3, Tpm4, Anxa2, Eef1a1, Cts1, Nme2, Dcn, Calr, Aldoa, Calm1, Tpm3, Ppib, Myh9, Ywhae, Hspa5, Hsp90aa1 (MBS962910, MBS8249600, MBS2010131, MBS145304, MBS2009095, MBS2033168, MBS143355, MBS145412, MBS2557309, MBS2009125, MBS8248528, MBS2018713, MBS144696, MBS2009092, MBS717396, MBS143242, MBS806904, MBS142709; MyBioSource, San Diego, CA, USA), Actin Gamma 1, Actn4, Hspa8, Vimentin (H00000071-P01, H00000081-P01, NBP1-30278, NBP2-35139; Novus, Littleton, CO, USA), and Hsp90ab1 (OPCA05157; Aviva system biology, San Diego, CA, USA). A TRANSWELL® chamber assay was conducted to detect invasive cellular motility, and a wound-healing scratch assay was utilized to evaluate 2-dimensional migratory behavior. The overexpression of Akt, Lrp5, β-catenin, Snail, Calr, and Ppib was conducted by transfecting plasmids (#10841, #115907, #31785, #31697, #51161, #36123; Addgene, Cambridge, MA, USA). […]

[6] = system: 4T1.2 mammary tumor cells; assay: Scratch-based migration assay; type: cell-based, mouse
Method: Two-dimensional motility assay. A wound-healing scratch motility assay was performed to evaluate 2-dimensional cell motility. Approximately 4×10^5 cells were seeded in 12-well plates. After cell attachment, a plastic pipette tip was used to scratch a gap on the cell layer. Floating cells were removed, and CM was added. Images of the cell-free scratch zone were obtained via an inverted microscope at 0 h, and the areas newly occupied with cells were determined 24-48 h after scratching. The areas were quantified with IMAGE J (National Institutes of Health, Bethesda, MD, USA).
In vitro assays. Cellular viability was examined using an MTT assay (Invitrogen, Carlsbad, CA, USA) with the procedure previously described, as well as an EdU assay with a fluorescence-based cell proliferation kit (Thermo-Fisher, Waltham, MA, USA). […]

[7] = system: 4T1.2 mammary tumor cells; assay: EdU proliferation assay; type: cell-based, mouse
Method: EdU assay. Approximately 2,000 cells were seeded in 96-well plates on day 1. CM was added on day 2 and cellular proliferation was examined using a fluorescence-based cell proliferation kit (CLICK-IT™ EDU ALEXA FLUOR™ 488 Imaging Kit; Thermo-Fisher, Waltham, MA, USA) on day 4. After fluorescent labeling, the number of fluorescently labeled cells was counted and the ratio to the total number of cells was determined.
as §3, with “USA).” for “USA). A TRANSWELL® chamber assay was conducted to detect invasive cellular motility, and a wound-healing scratch assay was utilized to evaluate 2-dimensional migratory behavior. The overexpression of Akt, Lrp5, β-catenin, Snail, Calr, and Ppib was conducted by transfecting plasmids (#10841, #115907, #31785, #31697, #51161, #36123; Addgene, Cambridge, MA, USA).”

[8] = system: 4T1.2 mammary tumor cells; assay: TRANSWELL invasion assay; type: cell-based, mouse
Source text: as §3

EO771 cells = assay: Western blot of proteins in treated tumor cells; type: cell-based, mouse
Method: Western blot analysis and mass spectrometry. Western blot analysis was conducted using known procedures. Antibodies were used against ANXA1, β-catenin, caspase 3, Lrp5, Lrp6, Runx2, Sclerostin, Snail, TGFβ, NFATc1, cathepsin K (Cell Signaling, Danvers, MA, USA), DMP1, ANXA6, CXCL5 (Abcam, Cambridge, MA, USA), M-CSF, MMP9, OPN, TPM4 (Santa Cruz, Dallas, TX, USA), WISP1 (R&D systems, Minneapolis, MN, USA), β-actin (Sigma, Saint Louis, MO, USA), LIMA1, Trail (Novus, Centennial, CO, USA), p53 and CXCL1 (Invitrogen, Carlsbad, California, USA), and DSP (ProteinTech, Rosemont, IL, USA). The expression levels of Sclerostin and Lrp5 in CM were detected by ELISA (My BioSource, San Diego, CA, USA). Proteins from A5 osteocyte CM, Y4 osteocyte CM, and osteoclast control CM (RAW264.7 cells) were analyzed by the HF Hybrid Quadrupole Orbitrap mass spectrometry. Among 549 identified proteins, 49 proteins presented higher expression levels in A5 CM than Y4 CM and control CM. […]
Western blot analysis and protein array analysis. […] A proteome profiler mouse XL cytokine array kit (R&D Systems, Minneapolis, MN, USA) was also employed, and the expression of 111 cytokines and chemokines in MSC-derived CM was determined. […]

[9] = Estimation of the diffusion coefficient through the skull; type: physicochemical, mouse
Source text: Estimation of the diffusion coefficient through the skull. Suppose that the two aqueous reservoirs are separated by a skull and the solute (albumin) in the first reservoir with the volume V1 is transferred to the second reservoirs with the volume V2. When the volume of the skull is negligible, the change in the solute in the first reservoir is approximated, using the quasi-steady-state flux, N according to Eq. (1) and Eq. (2):
Where t=time, and c 1 (t) and c 2 (t)=concentrations in the first and second reservoirs, respectively, A=skull surface area, D=diffusion coefficient through the skull, and L=skull thickness. Since the decrease in the first reservoir is equivalent to the gain in the second reservoir, Eq. (3) is arrived at:
If the initial concentrations are c1(t=0)=c0 and c2 (t=0)=0, the concentration c1 is predicted as a function of time according to Eq. (4):
The diffusion coefficient of albumin in the skull was estimated as 3.30×10^−8 cm^2/s from the slope (0.7157) of the best-fit line of Eq. (4) in FIG. 36B. Of note, V1=265 μl, V2=65 μl, c0=10 μg/μ1, A=188 mm^2, and L=60 μm.

Compound: COc1cccc(-c2cc(NCc3ccc4c(c3)OCO4)nc(N)n2)c1 [BML284]
- number of EO771 tumor cells in the lung [1]: Reduction

Compound: OCCN1CCN(CCCN2c3ccccc3Sc3ccc(C(F)(F)F)cc32)CC1 [Fluphenazine]
- viability of EO771 tumor cells in the inside of the skull [2]: significantly decreased
- size of human breast cancer fragments in the inside of the skull [3]: significantly shrunk

Compound: Oc1cc2c(cc1O)C(Cc1cccc3ccccc13)NCC2 (stereo not shown) [YS49]
- phosphorylated Akt in MSCs [4]: elevated

Compound: Hsp90aa1: Hsp90aa1 recombinant protein
- tumor-promoting genes (Lrp5, MMP9, Runx2, TGFβ, Snail) in 4T1.2 cells (4T1.2 cells): did not alter

Compound: Hsp90ab1: recombinant heat shock protein 90 alpha family class B member 1
- MTT-based viability of 4T1.2 cells [5]: Significant reduction
- scratch-based migration of 4T1.2 cells [6]: reduced
- tumor-promoting genes (Lrp5, MMP9, Runx2, TGFβ, Snail) in 4T1.2 cells (4T1.2 cells): downregulated

Compound: Ppib: recombinant peptidylprolyl isomerase B
- MTT-based viability of 4T1.2 cells [5]: Significant reduction
- phosphorylation level of eIF2α in 4T1.2 cells (4T1.2 cells): elevated
- tumor-promoting genes (Lrp5, MMP9, Runx2, TGFβ, Snail) in 4T1.2 cells (4T1.2 cells): suppressed
- EdU-based proliferation of 4T1.2 cells [7]: significantly inhibited
- TRANSWELL invasion of 4T1.2 cells [8]: significantly inhibited

Compound: TGFβ
- tumor-promoting/tumorigenic proteins (Lrp5, MMP9, Runx2, TGFβ, Snail, IL1β etc.) in EO771 cells (EO771 cells): increased

Compound: albumin: bovine serum albumin, solute for skull diffusion
- diffusion coefficient across the skull relative to aqueous solution, fold smaller [9]: approximately 20 fold
- diffusion coefficient across the skull ([9]; murine skull, estimated from slope of Eq. (4)): 3.30×10^−8 cm^2/s
